Source: publication PMC10873978, “Novel tetrahydroisoquinolines as DHFR and CDK2 inhibitors: synthesis, characterization, anticancer activity and antioxidant properties” (BMC Chemistry, 2024)
Where two headings read alike, the source gives them in different places.

Key:
MCF7 cell line = experiment: In vitro cytotoxic activity, MTT method, MCF7; assay type: cell-based, human; settings: for IC50: Homo sapiens, MCF7, MCF7 cell line, MTT
Description: (§1) Cell lines: The in vitro human breast cancerous cell line (MCF7), lung cancerous cell lines (A549) and normal cell lines were purchased from Serum and Vaccine formulation in Cairo-Egypt.
(§2) In vitro cytotoxic activity of all synthesized compounds against two human breast cell line (MCF7) and lung cell lines (A549) was evaluated according to the MTT method. Firstly, Growth the cell line medium in 96 well tissue culture plate was injected with 10^5 cells/mL (100 uL/plate well) of the cell line and incubated at 37 °C for 24 h to develop a monolayer sheet then the formed growth medium was poured from 96 well microtiter plates after the confluent sheet of cells. […] Secondly, add 0.1 mL of each concentration tetrahydroisoquinoline sample to each plate. The plates were incubated at 37 °C. Thirdly MTT solution (5 mg/mL in PBS) is prepared. Add 20 µL of MTT solution to each well plates. And shaking in 150 rpm for 5 min, to mix the MTT into the media. Then incubate at (37 °C, 5% CO2) for 1–5 h. Finally read the optical density at 560 nm and subtract background at 620 nm.
(§3) In this work, doxorubicin was used as a positive control drug for comparison with the synthesized compounds under the same experimental conditions.

A549 cell line = experiment: In vitro cytotoxic activity, MTT method, A549
Description: as §1, §2, §3

[1] = Homo sapiens, read-out: IC50 ± SD

CC(=O)C1C(c2ccc(N(C)C)cc2)c2c(C)nc(SCC(N)=O)c(C#N)c2CC1(C)O (centres unmarked) [Compound 5, 2-[(7-Acetyl-4-cyano-1,6-dimethyl-6-hydroxy-8-(4-N,N-dimethylamino-phenyl)-5,6,7,8-tetrahydroisoquinolin-3-yl)thio]acetamide]
IC50 (MCF7 cell line): 0.924 ± 0.007 µM | Toxicity % (MCF7 cell line; MCF7, 0.0487 µMol): -4.567% | Viability % (MCF7 cell line; MCF7, 0.0487 µMol): 104.5% | Toxicity % (MCF7 cell line; MCF7, 0.0975 µMol): -3.545% | Viability % (MCF7 cell line; MCF7, 0.0975 µMol): 103.6% | Toxicity % (MCF7 cell line; MCF7, 0.195 µMol): -2.859% | Viability % (MCF7 cell line; MCF7, 0.195 µMol): 102.9% | Toxicity % (MCF7 cell line; MCF7, 0.391 µMol): 4.208% | Viability % (MCF7 cell line; MCF7, 0.391 µMol): 95.79% | Toxicity % (MCF7 cell line; MCF7, 0.781 µMol): 35.46% | Viability % (MCF7 cell line; MCF7, 0.781 µMol): 64.54% | Toxicity % (MCF7 cell line; MCF7, 1.562 µMol): 77.53% | Viability % (MCF7 cell line; MCF7, 1.562 µMol): 22.47% | Toxicity % (MCF7 cell line; MCF7, 3.125 µMol): 88.89% | Viability % (MCF7 cell line; MCF7, 3.125 µMol): 11.11% | Toxicity % (MCF7 cell line; MCF7, 6.25 µMol): 93.91% | Viability % (MCF7 cell line; MCF7, 6.25 µMol): 6.087% | Toxicity % (MCF7 cell line; MCF7, 12.5 µMol): 96.85% | Viability % (MCF7 cell line; MCF7, 12.5 µMol): 3.145% | Toxicity % (MCF7 cell line; MCF7, 25 µMol): 97.22% | Viability % (MCF7 cell line; MCF7, 25 µMol): 2.778% | Toxicity % (A549 cell line; A549, Conc. 0.0487 µMol): 0% | Viability % (A549 cell line; A549, Conc. 0.0487 µMol): 100% | Toxicity % (A549 cell line; A549, Conc. 0.0975 µMol): 0.13% | Viability % (A549 cell line; A549, Conc. 0.0975 µMol): 99.87% | Toxicity % (A549 cell line; A549, Conc. 0.195 µMol): 0.3156% | Viability % (A549 cell line; A549, Conc. 0.195 µMol): 99.68% | Toxicity % (A549 cell line; A549, Conc. 0.391 µMol): 9.625% | Viability % (A549 cell line; A549, Conc. 0.391 µMol): 90.37% | Toxicity % (A549 cell line; A549, Conc. 0.781 µMol): 36.96% | Viability % (A549 cell line; A549, Conc. 0.781 µMol): 63.04% | Toxicity % (A549 cell line; A549, Conc. 1.562 µMol): 54.08% | Viability % (A549 cell line; A549, Conc. 1.562 µMol): 45.92% | Toxicity % (A549 cell line; A549, Conc. 3.125 µMol): 69.66% | Viability % (A549 cell line; A549, Conc. 3.125 µMol): 30.34% | Toxicity % (A549 cell line; A549, Conc. 6.25 µMol): 83.27% | Viability % (A549 cell line; A549, Conc. 6.25 µMol): 16.73% | Toxicity % (A549 cell line; A549, Conc. 12.5 µMol): 91.6% | Viability % (A549 cell line; A549, Conc. 12.5 µMol): 8.402% | Toxicity % (A549 cell line; A549, Conc. 25 µMol): 96.37% | Viability % (A549 cell line; A549, Conc. 25 µMol): 3.629% | IC50 (A549 cell line; [1]): 1.247 ± 0.002 µM

COc1cccc2c1C(=O)c1c(O)c3c(c(O)c1C2=O)C[C@@](O)(C(=O)CO)C[C@@H]3O[C@H]1C[C@H](N)[C@H](O)[C@H](C)O1 [Douxrbicin]
IC50 (A549 cell line; A549): 0.218 µM | Toxicity % (A549 cell line; A549, Conc. 0.0487 µMol): 20% | Viability % (A549 cell line; A549, Conc. 0.0487 µMol): 80% | Viability % (A549 cell line; A549, Conc. 0.0975 µMol): 73.2% | Toxicity % (A549 cell line; A549, Conc. 0.195 µMol): 36.33% | Viability % (A549 cell line; A549, Conc. 0.195 µMol): 63.67% | Toxicity % (A549 cell line; A549, Conc. 0.391 µMol): 62.45% | Viability % (A549 cell line; A549, Conc. 0.391 µMol): 37.55% | Viability % (A549 cell line; A549, Conc. 0.781 µMol): 20.26% | Toxicity % (A549 cell line; A549, Conc. 1.562 µMol): 89.84% | Viability % (A549 cell line; A549, Conc. 1.562 µMol): 10.16% | Toxicity % (A549 cell line; A549, Conc. 3.125 µMol): 93.56% | Viability % (A549 cell line; A549, Conc. 3.125 µMol): 6.44% | Toxicity % (A549 cell line; A549, Conc. 6.25 µMol): 95.35% | Viability % (A549 cell line; A549, Conc. 6.25 µMol): 4.651% | Toxicity % (A549 cell line; A549, Conc. 12.5 µMol): 97.9% | Viability % (A549 cell line; A549, Conc. 12.5 µMol): 2.1% | Toxicity % (A549 cell line; A549, Conc. 25 µMol): 98.9% | Viability % (A549 cell line; A549, Conc. 25 µMol): 1.1%

CC(=O)C1C(c2ccc(N(C)C)cc2)c2c(C)nc3sc(C(=O)Nc4ccc(C)cc4)c(N)c3c2CC1(C)O (centres unmarked) [Compound 8b, 7-Acetyl-1-amino-5,8-dimethyl-8-hydroxy-6-(4-N,N-dimethylaminophenyl)-N-(4-tolyl)-6,7,8,9-tetrahydrothieno[2,3-c]isoquinoline-2-carboxamide]
IC50 (MCF7 cell line): 3.8 ± 0.008 µM | Toxicity % (MCF7 cell line; MCF7, Conc. 0.0487 µMol): 0.0678% | Viability % (MCF7 cell line; MCF7, Conc. 0.0487 µMol): 99.9322% | Toxicity % (MCF7 cell line; MCF7, Conc. 0.0975 µMol): 0.1234% | Viability % (MCF7 cell line; MCF7, Conc. 0.0975 µMol): 99.8766% | Toxicity % (MCF7 cell line; MCF7, Conc. 0.195 µMol): 0.2042% | Viability % (MCF7 cell line; MCF7, Conc. 0.195 µMol): 99.8% | Toxicity % (MCF7 cell line; MCF7, Conc. 0.391 µMol): -0.2042% | Viability % (MCF7 cell line; MCF7, Conc. 0.391 µMol): 100.2% | Toxicity % (MCF7 cell line; MCF7, Conc. 0.781 µMol): 2.124% | Viability % (MCF7 cell line; MCF7, Conc. 0.781 µMol): 97.88% | Toxicity % (MCF7 cell line; MCF7, Conc. 1.562 µMol): 13.36% | Viability % (MCF7 cell line; MCF7, Conc. 1.562 µMol): 86.64% | Toxicity % (MCF7 cell line; MCF7, Conc. 3.125 µMol): 24.63% | Viability % (MCF7 cell line; MCF7, Conc. 3.125 µMol): 75.37% | Toxicity % (MCF7 cell line; MCF7, Conc. 6.25 µMol): 60.13% | Viability % (MCF7 cell line; MCF7, Conc. 6.25 µMol): 39.87% | Toxicity % (MCF7 cell line; MCF7, Conc. 12.5 µMol): 88.07% | Viability % (MCF7 cell line; MCF7, Conc. 12.5 µMol): 11.93% | Toxicity % (MCF7 cell line; MCF7, Conc. 25 µMol): 96.69% | Viability % (MCF7 cell line; MCF7, Conc. 25 µMol): 3.309% | Toxicity % (A549 cell line; A549, Conc. 0.04875 µMol): 8.929% | Toxicity % (A549 cell line; A549, Conc. 0.0975 µMol): 10.49% | Toxicity % (A549 cell line; A549, Conc. 0.195 µMol): 12.58% | Viability % (A549 cell line; A549, Conc. 0.195 µMol): 87.42% | Toxicity % (A549 cell line; A549, Conc. 0.391 µMol): 21.42% | Viability % (A549 cell line; A549, Conc. 0.391 µMol): 78.58% | Toxicity % (A549 cell line; A549, Conc. 0.781 µMol): 51.95% | Viability % (A549 cell line; A549, Conc. 0.781 µMol): 48.05% | Toxicity % (A549 cell line; A549, Conc. 1.562 µMol): 61.42% | Viability % (A549 cell line; A549, Conc. 1.562 µMol): 38.58% | Toxicity % (A549 cell line; A549, Conc. 3.125 µMol): 70.69% | Viability % (A549 cell line; A549, Conc. 3.125 µMol): 29.31% | Toxicity % (A549 cell line; A549, Conc. 6.25 µMol): 84.3% | Viability % (A549 cell line; A549, Conc. 6.25 µMol): 15.7% | Toxicity % (A549 cell line; A549, Conc. 12.5 µMol): 93.25% | Viability % (A549 cell line; A549, Conc. 12.5 µMol): 6.746% | Toxicity % (A549 cell line; A549, Conc. 25 µMol): 96.06% | Viability % (A549 cell line; A549, Conc. 25 µMol): 3.945% | IC50 (A549 cell line; [1]): 0.527 ± 0.002 µM
